Assay results taken from patent US9623028B2, “Methods of treating a cancer using substituted pyrrolopyrimidine compounds, compositions thereof” (Signal Pharmaceuticals, LLC, priority 2014, dated 2017).

Experiments:
[1] = target: CLK1 (Homo sapiens (Human), UniProt P49759); experiment: biochemical; settings: read-out: CLK1 (% Inh.), % inhibition at 3 μM
[2] = target: CLK2 (Homo sapiens (Human), UniProt P49760); experiment: biochemical; settings: read-out: CLK2 (% Inh.), % inhibition at 3 μM
CLK2, sequence (P49760 whole entry): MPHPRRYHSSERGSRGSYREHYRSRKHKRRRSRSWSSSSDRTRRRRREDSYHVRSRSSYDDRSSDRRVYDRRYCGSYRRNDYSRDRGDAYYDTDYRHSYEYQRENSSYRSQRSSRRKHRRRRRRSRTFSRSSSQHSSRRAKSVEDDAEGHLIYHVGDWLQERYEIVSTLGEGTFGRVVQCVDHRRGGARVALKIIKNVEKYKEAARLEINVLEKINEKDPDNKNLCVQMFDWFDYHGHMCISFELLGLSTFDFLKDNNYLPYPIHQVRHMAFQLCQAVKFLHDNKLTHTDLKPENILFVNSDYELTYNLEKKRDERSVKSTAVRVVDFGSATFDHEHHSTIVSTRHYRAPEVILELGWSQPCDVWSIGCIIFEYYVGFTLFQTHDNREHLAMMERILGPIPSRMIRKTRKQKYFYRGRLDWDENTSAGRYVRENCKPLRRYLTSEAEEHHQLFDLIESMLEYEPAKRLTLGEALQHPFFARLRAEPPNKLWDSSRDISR

CLK1, sequence (P49759 whole entry): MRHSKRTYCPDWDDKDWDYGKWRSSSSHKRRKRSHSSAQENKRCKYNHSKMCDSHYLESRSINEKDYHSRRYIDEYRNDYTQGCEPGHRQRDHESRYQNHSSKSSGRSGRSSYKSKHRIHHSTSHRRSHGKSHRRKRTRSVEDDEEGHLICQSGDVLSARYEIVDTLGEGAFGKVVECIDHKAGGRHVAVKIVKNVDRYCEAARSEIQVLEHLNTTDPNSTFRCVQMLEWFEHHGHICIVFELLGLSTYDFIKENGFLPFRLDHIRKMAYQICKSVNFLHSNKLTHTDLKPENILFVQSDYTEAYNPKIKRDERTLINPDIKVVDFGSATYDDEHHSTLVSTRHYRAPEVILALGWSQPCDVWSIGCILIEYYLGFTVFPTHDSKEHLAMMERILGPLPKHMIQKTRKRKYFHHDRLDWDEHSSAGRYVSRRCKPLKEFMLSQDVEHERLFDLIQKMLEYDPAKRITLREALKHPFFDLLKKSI

| inhibition at 3 µM [1] [%] | inhibition at 3 µM [2] [%] | SMILES |
| --- | --- | --- |
| 95 | 94 | CNC(=O)c1ccc(Nc2nc(OC3CCCC3)c3c(-c4ccc(O)cc4)c[nH]c3n2)c(C(C)C)c1 [Compound 11, 4-(4-(cyclopentyloxy)-5-(4-hydroxyphenyl)-7H-pyrrolo[2,3-d]pyrimidin-2-ylamino)-3-isopropyl-N-methylbenzamide] |
| 92 | 90 | CNC(=O)c1ccc(Nc2nc(NC3CCCC3)c3c(-c4ccc(O)cc4)c[nH]c3n2)c(OC)c1 [Compound 16, 4-(4-(cyclopentylamino)-5-(4-hydroxyphenyl)-7H-pyrrolo[2,3-d]pyrimidin-2-ylamino)-3-methoxy-N-methylbenzamide] |
| 97 | 98 | CNC(=O)c1ccc(Nc2nc(OC3CCOCC3)c3c(-c4ccc(O)cc4)c[nH]c3n2)c(OC)c1 [Compound 17, 4-(5-(4-hydroxyphenyl)-4-(tetrahydro-2H-pyran-4-yloxy)-7H-pyrrolo[2,3-d]pyrimidin-2-ylamino)-3-methoxy-N-methylbenzamide] |
| 96 | 103 | CNC(=O)c1ccc(Nc2nc(OC3CCCC3)c3c(-c4cccnc4)c[nH]c3n2)c(OC)c1 [Compound 58, 4-(4-(cyclopentyloxy)-5-(pyridin-3-yl)-7H-pyrrolo[2,3-d]pyrimidin-2-ylamino)-3-methoxy-N-methylbenzamide] |
| 68 | 99 | CNC(=O)c1ccc(Nc2nc(OC3CCCC3)c3c(-c4ccc(OC)c(OC)c4)c[nH]c3n2)c(OC)c1 [Compound 64, 4-(4-(cyclopentyloxy)-5-(3,4-dimethoxyphenyl)-7H-pyrrolo[2,3-d]pyrimidin-2-ylamino)-3-methoxy-N-methylbenzamide] |
| 101 | 100 | COc1nc(Nc2ccc(C(=O)N(C)C)cc2C)nc2[nH]cc(-c3ccncc3)c12 [Compound 89, 4-(4-methoxy-5-(pyridin-4-yl)-7H-pyrrolo[2,3-d]pyrimidin-2-ylamino)-N,N,3-trimethylbenzamide] |
| 103 | 104 | Cc1nc2ccc(-c3c[nH]c4nc(Nc5ccc(C(=O)N(C)C)cc5C)nc(O[C@H]5CCOC5)c34)cc2o1 [Compound 98, (S)-N,N,3-trimethyl-4-(5-(2-methylbenzo[d]oxazol-6-yl)-4-(tetrahydrofuran-3-yloxy)-7H-pyrrolo[2,3-d]pyrimidin-2-ylamino)benzamide] |
| 98 | 98 | CNC(=O)c1ccc(Nc2nc(OC)c3c(-c4ccc(OC)nc4)c[nH]c3n2)c(OC)c1 [Compound 118, 3-methoxy-4-(4-methoxy-5-(6-methoxypyridin-3-yl)-7H-pyrrolo[2,3-d]pyrimidin-2-ylamino)-N-methylbenzamide] |
| 104 | 101 | CNC(=O)c1ccc(Nc2nc(O[C@H]3CCOC3)c3c(-c4ccc5nc(C)oc5c4)c[nH]c3n2)c(C)c1 [Compound 133, (S)-N,3-dimethyl-4-(5-(2-methylbenzo[d]oxazol-6-yl)-4-(tetrahydrofuran-3-yloxy)-7H-pyrrolo[2,3-d]pyrimidin-2-ylamino)benzamide] |
| 104 | 99 | CNC(=O)c1ccc(Nc2nc(OCCOC)c3c(-c4ccc5nc(C)oc5c4)c[nH]c3n2)c(OC)c1 [Compound 139, 3-methoxy-4-(4-(2-methoxyethoxy)-5-(2-methylbenzo[d]oxazol-6-yl)-7H-pyrrolo[2,3-d]pyrimidin-2-ylamino)-N-methylbenzamide] |
| 97 | 103 | Cc1cc(C(=O)N(C)C)ccc1Nc1nc(OC2CCOCC2)c2c(-c3ccnc(C#N)c3)c[nH]c2n1 [Compound 140, 4-(5-(2-cyanopyridin-4-yl)-4-(tetrahydro-2H-pyran-4-yloxy)-7H-pyrrolo[2,3-d]pyrimidin-2-ylamino)-N,N,3-trimethylbenzamide] |
| 99 | 106 | CNC(=O)c1ccc(Nc2nc(OC3CCOCC3)c3c(-c4ccc5nc(C)n(C)c5c4)c[nH]c3n2)c(OC)c1 [Compound 148, 4-(5-(1,2-dimethyl-1H-benzo[d]imidazol-6-yl)-4-(tetrahydro-2H-pyran-4-yloxy)-7H-pyrrolo[2,3-d]pyrimidin-2-ylamino)-3-methoxy-N-methylbenzamide] |
| 99 | 111 | CNC(=O)c1ccc(Nc2nc(OC3CCC(C)(O)CC3)c3c(-c4ccc5nc(C)oc5c4)c[nH]c3n2)c(C)c1 (stereo not drawn) [Compound 150, 4-(4-((1r,4r)-4-hydroxy-4-methylcyclohexyloxy)-5-(2-methylbenzo[d]oxazol-6-yl)-7H-pyrrolo[2,3-d]pyrimidin-2-ylamino)-N,3-dimethylbenzamide] |
| 95 | 105 | COc1nc(Nc2ccc(C(=O)N(C)C)cc2Cl)nc2[nH]cc(-c3ccncc3)c12 [Compound 157, 3-chloro-4-(4-methoxy-5-(pyridin-4-yl)-7H-pyrrolo[2,3-d]pyrimidin-2-ylamino)-N,N-dimethylbenzamide] |
| 98 | 108 | COc1cc(C(=O)NCCO)ccc1Nc1nc(OC(C)C)c2c(-c3ccc4nc(C)oc4c3)c[nH]c2n1 [Compound 160, N-(2-hydroxyethyl)-4-(4-isopropoxy-5-(2-methylbenzo[d]oxazol-6-yl)-7H-pyrrolo[2,3-d]pyrimidin-2-ylamino)-3-methoxybenzamide] |
| 100 | 106 | CCOc1ccc(-c2c[nH]c3nc(Nc4ccc(C(=O)NC)cc4C)nc(O[C@H]4CCOC4)c23)cn1 [Compound 162, (S)-4-(5-(6-ethoxypyridin-3-yl)-4-(tetrahydrofuran-3-yloxy)-7H-pyrrolo[2,3-d]pyrimidin-2-ylamino)-N,3-dimethylbenzamide] |
| 100 | 102 | CNC(=O)c1ccc(Nc2nc(OC3CCOCC3)c3c(-c4ccn(C)n4)c[nH]c3n2)c(OC)c1 [Compound 163, 3-methoxy-N-methyl-4-(5-(1-methyl-1H-pyrazol-3-yl)-4-(tetrahydro-2H-pyran-4-yloxy)-7H-pyrrolo[2,3-d]pyrimidin-2-ylamino)benzamide] |
| 100 | 105 | CNC(=O)c1ccc(Nc2nc(O[C@H]3CCOC3)c3c(-c4ccc5nc(C)oc5c4)c[nH]c3n2)c(OC)c1 [Compound 169, (S)-3-methoxy-N-methyl-4-(5-(2-methylbenzo[d]oxazol-6-yl)-4-(tetrahydrofuran-3-yloxy)-7H-pyrrolo[2,3-d]pyrimidin-2-ylamino)benzamide] |
| 101 | 98 | CNC(=O)c1ccc(Nc2nc(OC3CCOCC3)c3c(-c4cnn(C)c4)c[nH]c3n2)c(OC)c1 [Compound 184, 3-methoxy-N-methyl-4-(5-(1-methyl-1H-pyrazol-4-yl)-4-(tetrahydro-2H-pyran-4-yloxy)-7H-pyrrolo[2,3-d]pyrimidin-2-ylamino)benzamide] |
| 98 | 106 | CNC(=O)c1ccc(Nc2nc(OC(C)C)c3c(-c4ccnc(OC)c4)c[nH]c3n2)c(OC)c1 [Compound 185, 4-(4-isopropoxy-5-(2-methoxypyridin-4-yl)-7H-pyrrolo[2,3-d]pyrimidin-2-ylamino)-3-methoxy-N-methylbenzamide] |
| 100 | 99 | CNC(=O)c1ccc(Nc2nc(OC(C)C)c3c(-c4ccc(-c5ncc[nH]5)cc4)c[nH]c3n2)c(OC)c1 [Compound 193, 4-(5-(4-(1H-imidazol-2-yl)phenyl)-4-isopropoxy-7H-pyrrolo[2,3-d]pyrimidin-2-ylamino)-3-methoxy-N-methylbenzamide] |
| 100 | 103 | CNC(=O)c1ccc(Nc2nc(OC3CCOCC3)c3c(-c4ccc(-c5nc(C)c(C)[nH]5)cc4)c[nH]c3n2)c(OC)c1 [Compound 197, 4-(5-(4-(4,5-dimethyl-1H-imidazol-2-yl)phenyl)-4-(tetrahydro-2H-pyran-4-yloxy)-7H-pyrrolo[2,3-d]pyrimidin-2-ylamino)-3-methoxy-N-methylbenzamide] |
| 100 | 103 | CNC(=O)c1ccc(Nc2nc(OC(C)C)c3c(-c4ccnc(C)c4)c[nH]c3n2)c(OC)c1 [Compound 201, 4-(4-isopropoxy-5-(2-methylpyridin-4-yl)-7H-pyrrolo[2,3-d]pyrimidin-2-ylamino)-3-methoxy-N-methylbenzamide] |
| 99 | 99 | CNC(=O)c1ccc(Nc2nc(NC(C)C)c3c(-c4ccc5nc(C)oc5c4)c[nH]c3n2)c(OC)c1 [Compound 202, 4-(4-(isopropylamino)-5-(2-methylbenzo[d]oxazol-6-yl)-7H-pyrrolo[2,3-d]pyrimidin-2-ylamino)-3-methoxy-N-methylbenzamide] |

| SMILES | inhibition at 3 µM [1] [%] | inhibition at 3 µM [2] [%] |
| --- | --- | --- |
| CNC(=O)c1ccc(Nc2nc(OC3CCC3)c3c(-c4ccc5nc(C)oc5c4)c[nH]c3n2)c(OC)c1 [Compound 198, 4-(4-cyclobutoxy-5-(2-methylbenzo[d]oxazol-6-yl)-7H-pyrrolo[2,3-d]pyrimidin-2-ylamino)-3-methoxy-N-methylbenzamide] | 93 | 100 |
| CC[C@@H](C)Oc1nc(Nc2ccc(C(=O)NC)cc2OC)nc2[nH]cc(-c3ccc4nc(C)oc4c3)c12 [Compound 203, (R)-4-(4-sec-butoxy-5-(2-methylbenzo[d]oxazol-6-yl)-7H-pyrrolo[2,3-d]pyrimidin-2-ylamino)-3-methoxy-N-methylbenzamide] | 98 | 99 |
| CC[C@H](C)Oc1nc(Nc2ccc(C(=O)NC)cc2OC)nc2[nH]cc(-c3ccc4nc(C)oc4c3)c12 [Compound 204, (S)-4-(4-sec-butoxy-5-(2-methylbenzo[d]oxazol-6-yl)-7H-pyrrolo[2,3-d]pyrimidin-2-ylamino)-3-methoxy-N-methylbenzamide] | 98 | 99 |
